Results taken from paper PMC10977697 (PLOS ONE, 2024).
Where no end group is shown, it is not given here.

What follows are sequences tested on EpCAM (assay: Spot phage ELISA, EpCAM). Details: spot phage ELISA signal-to-noise on EpCAM.
Format: binding, human
Work on “GPTQSHYGQCGGKGYPGYIVCSGTTCQMVNQSHSQCLPGAS (disulfide (positions not given here)) [EpCAM CBD 55]” yielded a S/N of 9.4. Work on “GPTQSHYGQCGGKGYQGAMKCSGTTCQYIFFPTSQCLPGAS (disulfide (positions not given here)) [EpCAM CBD 64]” yielded a S/N of 8.6. With “GPTQSHYGQCGGKGYRGAIRCSGTTCQYIREFTSQCLPGAS (disulfide (positions not given here)) [EpCAM CBD 43]” the S/N was 11.4. Work on “GPTQSHYGQCGGLGYAGAIVCSGTTCQYTIRNPSQCLPGAS (disulfide (positions not given here)) [EpCAM CBD 65]” yielded a S/N of 8.6. Sequence “GPTQSHYGQCGGLGYHGAIMCSGTTCQYAPIVTSQCLPGAS (disulfide (positions not given here)) [EpCAM CBD 52]” has a S/N of 9.8. “GPTQSHYGQCGGLGYLGMMQCSGTTCQYIQREISQCLPGAS (disulfide (positions not given here)) [EpCAM CBD 29]” gave a S/N of 15.7. Sequence “GPTQSHYGQCGGLGYQGGMMCSGTTCQYVPIWRSQCLPGAS (disulfide (positions not given here)) [EpCAM CBD 17]” has a S/N of 18.6. “GPTQSHYGQCGGLGYTGAIVCSGTTCQWKQLMRSQCLPGAS (disulfide (positions not given here)) [EpCAM CBD 24]” showed a S/N of 16.9. “GPTQSHYGQCGGLGYVGAMQCSGTTCQYVVRNFSQCLPGAS (disulfide (positions not given here)) [EpCAM CBD 28]” showed a S/N of 16.2. Sequence “GPTQSHYGQCGGMGYHGAISCSGTTCQPIIFPVSQCLPGAS (disulfide (positions not given here)) [EpCAM CBD 19]” has a S/N of 17.9. “GPTQSHYGQCGGMGYHGFIVCSGTTCQHMMPTTSQCLPGAS (disulfide (positions not given here)) [EpCAM CBD 12]” was tested, and the S/N was 19.8. In the case of “GPTQSHYGQCGGMGYKGIMCSGTTCQHAYIFRSQCLPGAS (disulfide (positions not given here)) [EpCAM CBD 49]”, the S/N is reported as 10.2. Work on “GPTQSHYGQCGGMGYQGMIKCSGTTCQYVARQASQCLPGAS (disulfide (positions not given here)) [EpCAM CBD 47]” yielded a S/N of 10.5. “GPTQSHYGQCGGNGYMGVISCSGTTCQEIQMQRSQCLPGAS (disulfide (positions not given here)) [EpCAM CBD 90]” was tested, and the S/N was 4.8. Sequence “GPTQSHYGQCGGPGYFGXVVCSGTTCQFAHIHRSQCLPGAS (disulfide) [EpCAM CBD 85]” has a S/N of 6.6. “GPTQSHYGQCGGPGYLGVIVCSGTTCQYQLRPTSQCLPGAS (disulfide (positions not given here)) [EpCAM CBD 70]” gave a S/N of 8.4. Sequence “GPTQSHYGQCGGPGYPGYIRCSGTTCQWIHSRTSQCLPGAS (disulfide (positions not given here)) [EpCAM CBD 89]” has a S/N of 5.8. With “GPTQSHYGQCGGPGYQGFIVCSGTTCQYRQPSESQCLPGAS (disulfide (positions not given here)) [EpCAM CBD 2]” the S/N was 24.7. “GPTQSHYGQCGGPGYTGVIKCSGTTCQFVNLPRSQCLPGAS (disulfide (positions not given here)) [EpCAM CBD 51]” was tested, and the S/N was 9.8. In the case of “GPTQSHYGQCGGPGYVGSIMCSGTTCQFQYIPTSQCLPGAS (disulfide (positions not given here)) [EpCAM CBD 23]”, the S/N is reported as 16.9. “GPTQSHYGQCGGPGYYGAIVCSGTTCQHTFITHSQCLPGAS (disulfide (positions not given here)) [EpCAM CBD 57]” was tested, and the S/N was 9.3. In the case of “GPTQSHYGQCGGQGYHGAILCSGTTCQYTMISRSQCLPGAS (disulfide (positions not given here)) [EpCAM CBD 5]”, the S/N is reported as 22.8. In the case of “GPTQSHYGQCGGQGYHGMIRCSGTTCQWVPMVRSQCLPGAS (disulfide (positions not given here)) [EpCAM CBD 39]”, the S/N is reported as 12.6. For “GPTQSHYGQCGGQGYHGYIMCSGTTCQYYTPYTSQCLPGAS (disulfide (positions not given here)) [EpCAM CBD 68]”, the S/N was 8.5. In the case of “GPTQSHYGQCGGQGYIGAIMCSGTTCQMRSLPASQCLPGAS (disulfide (positions not given here)) [EpCAM CBD 20]”, the S/N is reported as 17.5. “GPTQSHYGQCGGQGYYGAIMCSGTTCQWEPARKSQCLPGAS (disulfide (positions not given here)) [EpCAM CBD 31]” gave a S/N of 15.3. Work on “GPTQSHYGQCGGRGYFGAIICSGTTCQYVQKHMSQCLPGAS (disulfide (positions not given here)) [EpCAM CBD 9]” yielded a S/N of 20.9. “GPTQSHYGQCGGRGYFGALRCSGTTCQYVTMIESQCLPGAS (disulfide (positions not given here)) [EpCAM CBD 80]” gave a S/N of 7.3. With “GPTQSHYGQCGGRGYKGAIVCSGTTCQVAQMYQSQCLPGAS (disulfide (positions not given here)) [EpCAM CBD 86]” the S/N was 6.6. For “GPTQSHYGQCGGRGYPGAMVCSGTTCQWHQPLRSQCLPGAS (disulfide (positions not given here)) [EpCAM CBD 60]”, the S/N was 8.9. “GPTQSHYGQCGGRGYPGAVICSGTTCQYHQATRSQCLPGAS (disulfide (positions not given here)) [EpCAM CBD 73]” gave a S/N of 7.8. “GPTQSHYGQCGGRGYPGAVVCSGTTCQYAVVPHSQCLPGAS (disulfide (positions not given here)) [EpCAM CBD 14]” was tested, and the S/N was 19.4. “GPTQSHYGQCGGRGYPGFIRCSGTTCQFVQSVQSQCLPGAS (disulfide (positions not given here)) [EpCAM CBD 78]” gave a S/N of 7.4. “GPTQSHYGQCGGRGYPGRMVCSGTTCQYVAPMISQCLPGAS (disulfide (positions not given here)) [EpCAM CBD 27]” gave a S/N of 16.6. In the case of “GPTQSHYGQCGGRGYVGAIACSGTTCQFTPPRSSQCLPGAS (disulfide (positions not given here)) [EpCAM CBD 87]”, the S/N is reported as 6.1. “GPTQSHYGQCGGRGYVGALMCSGTTCQYIAKPVSQCLPGAS (disulfide (positions not given here)) [EpCAM CBD 4]” was tested, and the S/N was 23.5. “GPTQSHYGQCGGRGYVGGIKCSGTTCQOVHAHPSQCLPGAS (disulfide) [EpCAM CBD 72]” was tested, and the S/N was 8.0. With “GPTQSHYGQCGGRGYWGMAICSGTTCQAQTRMISQCLPGAS (disulfide (positions not given here)) [EpCAM CBD 42]” the S/N was 11.4. For “GPTQSHYGQCGGSGYHGAILCSGTTCQYVEVSRSQCLPGAS (disulfide (positions not given here)) [EpCAM CBD 10]”, the S/N was 20.7. For “GPTQSHYGQCGGSGYKGAIKCSGTTCQLVTVHVSQCLPGAS (disulfide (positions not given here)) [EpCAM CBD 46]”, the S/N was 10.7. “GPTQSHYGQCGGSGYKGVIVCSGTTCQYKIMTMSQCLPGAS (disulfide (positions not given here)) [EpCAM CBD 44]” was tested, and the S/N was 11.1. Sequence “GPTQSHYGQCGGSGYPGAVVCSGTTCQWRQVPRSQCLPGAS (disulfide (positions not given here)) [EpCAM CBD 18]” has a S/N of 18.3. In the case of “GPTQSHYGQCGGSGYPGHFLCSGTTCQTPRSWSSQCLPGAS (disulfide (positions not given here)) [EpCAM CBD 82]”, the S/N is reported as 6.9. With “GPTQSHYGQCGGSGYWGAIACSGTTCQMVKLPYSQCLPGAS (disulfide (positions not given here)) [EpCAM CBD 69]” the S/N was 8.5. “GPTQSHYGQCGGSGYYGAIMCSGTTCQYMRAMQSQCLPGAS (disulfide (positions not given here)) [EpCAM CBD 79]” was tested, and the S/N was 7.4. For “GPTQSHYGQCGGSGYYGVIVCSGTTCQYVNRKPSQCLPGAS (disulfide (positions not given here)) [EpCAM CBD 36]”, the S/N was 13.1. “GPTQSHYGQCGGSGYYGYIVCSGTTCQFKPSGRSQCLPGAS (disulfide (positions not given here)) [EpCAM CBD 81]” showed a S/N of 7.0. “GPTQSHYGQCGGTGYFGMMRCSGTTCQHVFLERSQCLPGAS (disulfide (positions not given here)) [EpCAM CBD 53]” showed a S/N of 9.5. For “GPTQSHYGQCGGTGYHGVMLCSGTTCQLWAHPLSQCLPGAS (disulfide (positions not given here)) [EpCAM CBD 11]”, the S/N was 20.6. In the case of “GPTQSHYGQCGGTGYPGAMVCSGTTCQLFELXVSQCLPGAS (disulfide) [EpCAM CBD 74]”, the S/N is reported as 7.8. “GPTQSHYGQCGGTGYVGAHVCSGTTCQFVYRDFSQCLPGAS (disulfide (positions not given here)) [EpCAM CBD 48]” gave a S/N of 10.5. In the case of “GPTQSHYGQCGGTGYVGMFKCSGTTCQYVYSSASQCLPGAS (disulfide (positions not given here)) [EpCAM CBD 67]”, the S/N is reported as 8.5. “GPTQSHYGQCGGTGYVGYTRCSGTTCQTVPAVMSQCLPGAS (disulfide (positions not given here)) [EpCAM CBD 16]” gave a S/N of 18.9. “GPTQSHYGQCGGVGYHGAIQCSGTTCQEVKMTRSQCLPGAS (disulfide (positions not given here)) [EpCAM CBD 3]” was tested, and the S/N was 23.5. Sequence “GPTQSHYGQCGGVGYHGMIVCSGTTCQWKPSVYSQCLPDAS (disulfide (positions not given here)) [EpCAM CBD 76]” has a S/N of 7.6. “GPTQSHYGQCGGVGYVGSILCSGTTCQFTKVRTSQCLPGAS (disulfide (positions not given here)) [EpCAM CBD 50]” was tested, and the S/N was 9.9. “GPTQSHYGQCGGWGYQGWAICSGTTCQAQLSHKSQCLPGAS (disulfide (positions not given here)) [EpCAM CBD 83]” showed a S/N of 6.8. Work on “GPTQSHYGQCGGXGYNGXIVCSGTTCQYXRKSKSQCLPGAS (disulfide) [EpCAM CBD 61]” yielded a S/N of 8.8. For “GPTQSHYGQCGGYGYPGLACSGTTCQYTYYMRSQCLPGAS (disulfide (positions not given here)) [EpCAM CBD 71]”, the S/N was 8.3. Sequence “GPTQSHYGQCGGYGYQGMMMCSGTTCQYVRHKVSQCLPGAS (disulfide (positions not given here)) [EpCAM CBD 30]” has a S/N of 15.6. In the case of “GPTQSHYGQCGGYVGAIMCSGTTCQFQHVKQSQCLPGAS (disulfide (positions not given here)) [EpCAM CBD 38]”, the S/N is reported as 12.9.
